Results reported in US20150159115A1, “PURIFICATION OF DPA ENRICHED OIL” (Omega Protein Corporation, priority 2013, published 2015).
Entries after “also recorded” stand apart in the source; their conditions may differ. Read-outs that look alike come from different tables or passages of the source.

How the values were obtained:
LDLr−/− mice [1] = experiment: Fluorescence intensity of inflammatory markers in brain hippocampus of mice; type: in vivo, mouse; settings: relative to control = 1
From the text: (§1) 48 male LDLr−/− mice (8-10 weeks of age, ˜20 g) were obtained from Jackson Laboratories (stock #2207) and allowed to acclimate to the cages, room, and feeding design for 12 days. After the acclimation period mice were weighed and randomly assigned to one of six treatments. Mice were fed an isolipid (20% total fatty acids w/w), isonitrogenous, and 0.2% cholesterol (w/w) diet, which is considered atherogenic (Ain76, 58TQ TestDiet®) as a base diet. This base diet was formulated to meet or exceed all nutrient and energy requirements for a growing mouse. The treatments were added to the base diet (0.76% w/w of the total diet) and was made once at the beginning of the study, separated into weekly aliquots, stored at −80° C., allowed to thaw at 4° C. for 2 days prior to feeding, and stored at 4° C. until fed. A sample from each weekly aliquot was collected, composited, and archived for fatty acid analysis at a later date. The treatments were as follows: (1) Negative control diet, 3.5% of the total fatty acids were replaced with milk fat (the only source of fat in the base diet), (2) 3.5% of the total fatty acids were replaced with purified ethyl esters of DHA, (3) 3.5% of the total fatty acids were replaced with purified ethyl esters of DPAn3, (4) 3.5% of the total fatty acids were replaced with purified ethyl esters of EPA, (5) 3.5% of the total fatty acids were replaced with omega-3 fatty acids from Lovaza® (GlaxoSmithKline), and (6) 3.5% of the total fatty acids were replaced with omega-3 fatty acids from ΩmegaActiv® DPA 5000 (Omega Protein Inc., Houston, Tex.; Table 1).
(§2) The objectives of these studies were to compare the effects of replacing 3.5% of the total fatty acids with DPAn3, EPA, DHA, and commercial combinations of EPA, DPAn3, and DHA on serum lipid profiles, brain inflammation, and the development of atherosclerosis in LDLr−/− mice fed an atherogenic diet for 20 weeks and [2] to determine if DPAn3 enrichment of macrophages (50 and 100 μM) changed their lipopolysaccharide stimulated inflammatory profile relative to saturated (S), mono-unsaturated (MU), and other omega-6 and omega-3 poly-unsaturated (PU) fatty acids (FA).

LDLr−/− mice [2] = experiment: TNF-α concentration in adipose tissue of mice fed different omega-3 products; settings: mouse, in vivo
From the text: as §1
TNF-α concentration in adipose tissue of mice fed with different omega-3 products

LDLr−/− mice [3] = experiment: Fluorescence intensity of inflammatory markers in brain microvessel (cerebrovasculature) of mice; type: in vivo, mouse; settings: relative to control = 1.00
From the text: as §1, §2
Flourescence intensity (relative) of brain microvessel

THP-1 cells [4] = experiment: Cytokine (TNF-α, MCP-1, IL-6) release by LPS-stimulated THP-1 macrophages after fatty acid incubation; type: cell-based; settings: for Release of cytokines (TNF-α, MCP-1, IL-6) by THP-1 macrophages compared to control macrophages: fatty acid 50 and 100 μM 24 h, then LPS 24 h; for Release of cytokines by THP-1 macrophages at increasing fatty acid concentration: highest 100 μM
Description: (§3) THP-1 cells were maintained in RPMI 1640+2 mM L-Glutamine, 10 mM HEPES, 1 mM sodium pyruvate, 4500 mg/L glucose, and 1500 mg/L sodium bicarbonate; supplemented with 3.5 μL/L of 2-mercaptoethanol and 10% fetal bovine serum (FBS). Cell line was maintained in 75 cm^2 filtered cap flasks in a 37° C. incubator with 5% CO2. THP-1 cells were seeded in 24 well plates at 5×10^5 cells/mL using 600 μL/well and allowed to differentiate into macrophages (MΦ) for 72 h with phorbol 12-myristate 13-acetate (PMA) at a final concentration of 50 ng/mL.
Experiment 1: Prior to incubation with individual fatty acids, the cells were starved for 8 h in a 2% lipo-free FBS RPMI medium. Individual fatty acids were added in duplicate into the 24 well plate at two concentrations, 50 μM and 100 μM. Every assay was cultured in three runs with duplicates in each run pooled. After incubation for 24 h with fatty acids the MΦ were scraped off the plates and fatty acids were isolated as described in the ‘Animal Tests’ portion of this Example. The fatty acid profiles of the MΦ were determined as previously described (Wang, et al., 2010, Clin. Nutr., DOI: 10.1016/j.clnu.2013.04.009).
(§4) Experiment 2: Previously differentiated MΦ were incubated with fatty acids as described in ‘Experiment 1’ for 24 hours. At the 24 h time point the cells were then stimulated with lipopolysaccharide from E. coli 0111:B4 for another 24 hours. The plates were centrifuged at 1200×g for 5 minutes and supernatant was then collected and analyzed for cytokines. The MΦ were scraped off the plates and fatty acids were isolated as described in the ‘Animal Portion’. The fatty acid profiles of the MΦ were determined as previously described (Wang, et al., 2010, Clin. Nutr., DOI: 10.1016/j.clnu.2013.04.009).
A linear mixed effects model was used in R, lme in the nlme package, for estimating treatment effects on cytokine production in LPS stimulated THP-1 cells. The fixed effects fit were treatment, FA concentration, and when significant LPS concentration was fit as a covariate, the plate cells were cultured on nested within run was fit as a random effect. Least squares means were analyzed as outlined above and pairwise comparisons were made between treatments for FA concentration, or where significant LPS concentration.
The objective of this study was to determine if docosapentaenoic acid n-3 (DPAn3) enrichment of macrophages (MΦ) changed their inflammatory response relative to saturated (S), mono-unsaturated (MU), and other poly-unsaturated (PU) fatty acids (FA). Differentiated THP-1 cells were incubated with one of 11 FA (50 and 100 μM) of varying degrees of unsaturation or no FA for 24 h prior to 24 h of stimulation with lipopolysaccharide from E. coli. Fatty acids were collected from MΦ without stimulation to determine the fatty acid profiles. Media was collected from MΦ post-stimulation and probed for prostaglandin E2, and cytokines, including tumor necrosis factor-α, monocyte chemoattractant protein-1, and interleukin-6. Prostaglandin E2 production was greater (P<0.05) for AA than all other FA, and omega-3 PUFA decreased (P<0.01) PGE2 compared to n6 PUFA and all other FA.

THP-1 cells [5] = experiment: Prostaglandin E2 production by LPS-stimulated THP-1 macrophages after fatty acid incubation; type: cell-based; settings: fatty acid 50 and 100 μM 24 h, then LPS 24 h
Description: as §3, §4
The objective of this study was to determine if docosapentaenoic acid n-3 (DPAn3) enrichment of macrophages (MΦ) changed their inflammatory response relative to saturated (S), mono-unsaturated (MU), and other poly-unsaturated (PU) fatty acids (FA). […]

[6] = test system: murine peritoneal macrophages; settings: cited from earlier work

Compound	IL-8 fluorescence intensity (relative) of brain hippocampus (LDLr−/− mice [1])	TIMP2 fluorescence intensity (relative) of brain hippocampus (LDLr−/− mice [1])	TNF-α fluorescence intensity (relative) of brain hippocampus (LDLr−/− mice [1])	TNF-α Concentration in adipose tissue (LDLr−/− mice [2])	IL-8 fluorescence intensity (relative) of brain microvessel (LDLr−/− mice [3])	MCP-1 fluorescence intensity (relative) of brain microvessel (LDLr−/− mice [3])	Release of cytokines (TNF-α, MCP-1, IL-6) by THP-1 macrophages compared to control macrophages (THP-1 cells [4])	Release of cytokines by THP-1 macrophages at increasing fatty acid concentration (THP-1 cells [4])	other results
CC/C=C\C/C=C\C/C=C\C/C=C\C/C=C\CCCC(=O)O [EPA, eicosapentaenoic acid]	0.72	0.63	0.31	0.58 pg/μg protein	0.93	0.96			
CCCCCCCC/C=C\CCCCCCCC(=O)O [oleic acid]							did not change the amount of cytokines released; also recorded: did not change inflammatory cytokine release	did not change, or increased the amount of cytokines released	
CC/C=C\C/C=C\C/C=C\C/C=C\C/C=C\CCCCCC(=O)O [DPA, docosapentaenoic acid]	0.70	0.17	0.28	0.41 pg/μg protein	0.96	0.92			
CCCCC/C=C\C/C=C\C/C=C\C/C=C\CCCC(=O)O [AA, Arachidonic acid]							most potent inhibitor of cytokine release followed by AA		Prostaglandin E2 production by THP-1 macrophages (THP-1 cells [5]): greater; also recorded: increased greatly; TNF-α production ([6]; AA at 2-5 μM, increasing LPS concentrations): completely inhibited; TNF-α production ([6]; AA at concentrations as low as 1 μM): decreased TNF-α production; Release of cytokines (TNF-α, MCP-1, IL-6) by THP-1 macrophages compared to control macrophages (THP-1 cells [4]; listed as Arachidonic acid): decreased cytokine expression, but not to the extent of EPA supplementation
CCCCCCCCCCCCCCCC(=O)O [C16:0]							did not change the amount of cytokines released	did not change, or increased the amount of cytokines released	
CCCCCCCCCCCCCCCCCC(=O)O [C18:0]							did not change the amount of cytokines released	did not change, or increased the amount of cytokines released	
CC/C=C\C/C=C\C/C=C\C/C=C\C/C=C\C/C=C\CCC(=O)O [DHA, docosahexaenoic acid]	0.46	0.23	0.29	0.82 pg/μg protein	0.86	0.93			
